Reference: EP2423181A1, “Multitarget substituted biphenyl diol derivatives” (PROUS INSTITUTE FOR BIOMEDICAL RESEARCH S.A., priority 2010, dated 2012)
pIC50: −log10 of the molar value. Where a name gives a salt, the structure may show the parent alone. Read-outs that look alike come from different tables or passages of the source.

What was measured:
5-LO = biological target: T1, 5-LO (Homo sapiens, UniProt P09917); experiment: 5-Lipoxygenase inhibition (LTB4 enzyme immunoassay); format: biochemical
T1 construct: host or cells: Sf9 insect cells
T1 sequence (P09917 1-674): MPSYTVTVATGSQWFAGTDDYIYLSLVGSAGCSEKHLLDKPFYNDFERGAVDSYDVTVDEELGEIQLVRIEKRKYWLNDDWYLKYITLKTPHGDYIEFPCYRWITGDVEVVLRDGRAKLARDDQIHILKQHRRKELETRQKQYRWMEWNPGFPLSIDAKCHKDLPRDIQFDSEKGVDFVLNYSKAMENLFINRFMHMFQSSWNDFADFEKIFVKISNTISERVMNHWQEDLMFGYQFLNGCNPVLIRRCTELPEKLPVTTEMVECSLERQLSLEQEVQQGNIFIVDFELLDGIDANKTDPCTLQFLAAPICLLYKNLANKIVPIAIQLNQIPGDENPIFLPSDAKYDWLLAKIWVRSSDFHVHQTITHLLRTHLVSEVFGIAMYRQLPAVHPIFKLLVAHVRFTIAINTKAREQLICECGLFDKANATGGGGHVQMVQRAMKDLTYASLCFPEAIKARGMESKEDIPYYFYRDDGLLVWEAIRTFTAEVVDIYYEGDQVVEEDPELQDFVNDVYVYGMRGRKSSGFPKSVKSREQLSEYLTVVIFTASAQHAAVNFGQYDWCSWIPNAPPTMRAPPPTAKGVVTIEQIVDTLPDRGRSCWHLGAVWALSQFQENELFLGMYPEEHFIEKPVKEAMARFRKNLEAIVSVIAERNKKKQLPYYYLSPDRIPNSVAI
Procedure: The 5-LO-inhibitory activity of compounds of the invention was determined using previously reported assays. Briefly, lipoxygenase activity was evaluated in human recombinant insect Sf9 cells using 3µM arachidonic acid as a substrate with a preincubation and incubation times of 15 and 5 min respectively at 25°C in a 50 mM Tris-HCl, pH 7.4, 2 mM CaCl2, 1 mM ATP. The quantification method used was enzyme immunoassay determination of LTB4 and the significance criteria were established with a response equal or different of the maximum stimulation or inhibition (Noguchi, M. et al., Eur J Biochem, 1994, 222(2), 285-292; Percival, M.D. et al., Eur J Biochem, 1992, 210(1), 109-117).

COX-2 = biological target: T2, COX-2 (Homo sapiens, UniProt P35354); experiment: COX-2 inhibition (PGE2 enzyme immunoassay); format: biochemical; conditions: read-out: % COX-2 inhibition
T2 construct: host or cells: Sf21 insect cells
T2 sequence (P35354 18-604): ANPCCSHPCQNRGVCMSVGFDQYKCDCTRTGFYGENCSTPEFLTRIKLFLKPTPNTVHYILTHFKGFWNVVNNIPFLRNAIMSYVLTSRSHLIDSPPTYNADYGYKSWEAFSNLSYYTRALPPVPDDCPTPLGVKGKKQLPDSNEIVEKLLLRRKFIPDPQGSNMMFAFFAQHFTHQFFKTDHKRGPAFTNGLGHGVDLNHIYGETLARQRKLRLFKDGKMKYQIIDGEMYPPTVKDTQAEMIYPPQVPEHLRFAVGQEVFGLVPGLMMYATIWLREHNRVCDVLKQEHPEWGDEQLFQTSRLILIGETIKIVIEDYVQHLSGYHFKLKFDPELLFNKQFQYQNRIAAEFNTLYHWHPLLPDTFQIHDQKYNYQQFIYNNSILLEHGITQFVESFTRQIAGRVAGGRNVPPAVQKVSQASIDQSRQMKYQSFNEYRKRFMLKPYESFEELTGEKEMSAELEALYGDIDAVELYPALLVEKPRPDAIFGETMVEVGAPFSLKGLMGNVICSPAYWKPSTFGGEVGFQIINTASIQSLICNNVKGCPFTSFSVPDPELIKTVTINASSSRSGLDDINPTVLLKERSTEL
Procedure: The COX-1 inhibitory activity of representative compounds of the invention was determined according to previously reported methods. COX-1 activity was assessed in human platelets using 100 µM arachidonic acid as a substrate and preincubation and incubation times of 15 min at 37 °C in HBSS, 15 mM HEPES pH 7.4 . The quantification method used was enzyme immunoassay determination of PGE2 (Chan, C.C. et al. J Pharmacol Exp Ther, 1999, 290, 551-560; Swinney, D.C. et al. J Biol Chem, 1997, 272, 12393-12398; Warner, T.D. et al. Proc Natl Acad Sci U S A, 1999, 96, 7563-7568; Riendeau, D. et al. Can J Physiol Pharmacol, 1997, 75, 1088-1095). COX-2 inhibitory activity was determined in human recombinant insect Sf21 cells according to references (Warner, T.D. et al., Proc Natl Acad Sci, USA. 1999;96(13):7563-7568; Riendeau, D. et al., Can J Physiol Pharmacol, 1997 ;75(9):1088-1095). Briefly, the COX-2 inhibitory activity was assessed on human recombinant insect Sf21 cells using 0.3 µM arachidonic acid as a substrate and preincubation and incubation times of 15 and 5 min, respectively, at 37 °C in 100 mM Tris-HCl, pH 7.7. The quantification method used was enzyme immunoassay determination of PGE2. Table 11. Inhibition of COX-1 and COX-2 at 10 µM

tumor melanoma B16-FO = experiment: Tumor cell proliferation assay (alamarBlue); format: cell-based, murine; conditions: Mus musculus
Procedure: (§1) Changes in cell proliferation were detected based on the ability of viable cells to cause alamarBlue® to change its oxidized (non-fluorescent, blue) to a reduced (fluorescent, red) form. The alamarBlue® reaction allows the quantification of cell proliferation and examination of the metabolic activity of viable cells. Test substances were examined for activity on the proliferation of human or murine tumor cell lines at assay concentrations from 0.01 to 100 µM.

tumor lung A549 = experiment: Tumor cell proliferation assay (alamarBlue); format: cell-based; conditions: Homo sapiens
Procedure: as §1

tumor leukaemia K562 = experiment: Tumor cell proliferation assay (alamarBlue); format: cell-based; conditions: Homo sapiens
Procedure: as §1

tumor prostate LNCaP-FGC = experiment: Tumor cell proliferation assay (alamarBlue); format: cell-based; conditions: Homo sapiens
Procedure: as §1

tumor liver HepG2 = experiment: Tumor cell proliferation assay (alamarBlue); format: cell-based; conditions: Homo sapiens
Procedure: as §1

[1] = 5-LO, at 10 µM, read-out: % Inhibition
[2] = tumor melanoma B16-FO, read-out: IC50
[3] = tumor lung A549, read-out: IC50
[4] = tumor leukaemia K562, read-out: IC50
[5] = tumor prostate LNCaP-FGC, read-out: IC50
[6] = tumor liver HepG2, read-out: IC50

Row | Structure (SMILES) | inhibition at 10 µM (5-LO; [1]) [%] | inhibition at 10 µM (COX-2; at 10 µM) [%] | pIC50 (tumor melanoma B16-FO; [2]) | pIC50 (tumor lung A549; [3]) | pIC50 (tumor leukaemia K562; [4]) | pIC50 (tumor prostate LNCaP-FGC; [5]) | pIC50 (tumor liver HepG2; [6]) | inhibition at 10 µM (5-LO) [%] | inhibition at 10 µM (COX-2) [%] | pIC50 (tumor melanoma B16-FO) | pIC50 (tumor lung A549; A549) | pIC50 (tumor leukaemia K562; K562) | pIC50 (tumor prostate LNCaP-FGC) | pIC50 (tumor liver HepG2; HepG2)
1 | C=CCc1ccc(O)c(-c2cc(CC=C)ccc2OC(CCNC)c2ccccc2)c1.Cl (stereo not drawn) [Example 1, 5,5'-Diallyl-2'-[3-(methylamino)-1-phenylpropoxy]biphenyl-2-ol hydrochloride] | 100 | 0 | 5.72 | 5.30 | 5.72 | 4.89 | 5.85 |  |  |  |  |  |  | 
2 | C=CCc1ccc(O)c(-c2ccc(OC(CCNC)c3ccccc3)c(CC=C)c2)c1 (stereo not drawn) [Example 5, 3',5-Diallvl-4'-13-(methylamino)-1-phenylpropoxy]biphenyl-2-ol hydrochloride] |  |  |  |  |  |  |  | 101 | 0 | 5.80 | 5.92 | 5.85 | 5.82 | 6.00
3 | C=CCc1ccc(O)c(-c2ccc(O)c(CC=C)c2)c1 [Honokiol, reference compound] | 85 | 79 | 4.52 | 4.92 | 4.80 | 4.80 | 4.92 |  |  |  |  |  |  | 
